Each block holds one molecule with its values, some of them ahead of it. Where a SMILES comes first, the peptide text is derived from it. Where no end group is shown, it is not given here.
Columns and labels:
HEK293T cells = assay: Bax-induced apoptosis in HEK293T cells (pcDNA3-Bax transfection, Hoechst staining); type: cell-based, human; conditions: for Suppression of Bax-induced apoptosis: peptide delivered into the cells by liposome (BioPorter); for Suppression of Bax-induced apoptosis by co-transfected Ku70 mutant: 2.0 ug pCMV-2B construct co-transfected with pcDNA3-Bax
Procedure: FIG. 1 illustrates that new peptides designed from Ku70 show anti-Bax activity. FIG. 1A: scheme of Ku70 full-length (Ku70 wt), Ku701-577 (Ku70Δ578–609), or Ku70578-609 (Ku70Δ1–577). FIG. 1C: HEK293T cells were transfected with 1.0 ug of pCMV-2B-control vector (Control) or pcDNA3-Bax (Bax) together with 2.0 ug of pCMV-2B-Ku70 wt (Ku70 wt), pCMV-2B-Ku701-577 (Ku701-577), or pCMV-2B-Ku70578-609 (Ku70578-609). All the cells were also co-transfected with 0.5 ug pEGFP for the marking of transfected cells. Apoptosis in the transfected cells was analyzed 24 hours following transfection with Hoechst dye staining of the nucleus as described in Methods. FIG. 1D: HEK293T cells were incubated with 200 uM peptide composed of Ku70578-587 or Ku70596-600 for 4 hours using BioPorter reagent, and then transfected with 1.0 ug of pCDNA3-control vector (Control) or pcDNA3-Bax (Bax). The number of apoptotic cells was determined as described in FIG. 1C. FIG. 1E: HEK293T cells (10^6 cells) were incubated with 200 uM IPMIK (negative control peptide) or VPMLK (V5) and PMLKE (P5) peptides at the indicated concentrations for 1 hour and then incubated cells were transfected with 1.0 ug of pcDNA3-Bax. Also, unincubated cells were transfected with 1.0 ug of pcDNA3-Bax in the presence or absence of 200 uM z-VAD-fmk. The number of apoptotic cells was determined as described in FIG. 1C. FIG. 1F: Summary of the anti-Bax activity and sequence of all peptides used.
HEK293T and HeLa cells were cultured in MEM supplemented with 10% fetal bovine serum (FBS) and Du145 cells and mouse embryonic fibroblasts (MEFs) were in DMEM with 10% FBS. Transfection of the plasmids was performed by SuperFect (Qiagen) according to the manufacturer's manual. Apoptosis was induced by pcDNA3-human Bax (Bax-encoding plasmid)-transfection, Staurosporin (STS)-treatment and UVC-irradiation. The amount of the plasmids, the concentration of STS, and the energy of UVC-irradiation are described in the figure legends. Apoptosis in the transfected cells was analyzed as follows: A plasmid encoding enhanced green fluorescent protein (EGFP) (0.5 ug to 10^6 cells) was transfected to all the groups to mark the transfected cells. After the treatment, cells were stained with Hoechst dye and cells with apoptotic nuclei were counted in GFP-expressing cells under the fluorescent microscope as described by Matsuyama, et al., J. Biol. Chem. 273:30995–31001, 1998. Each point in the figures showing percentages of apoptosis represents the mean +/−SE of three experiments. Caspase activities of cells were measured by detecting the cleavage of fluorogenic substrate of Caspase (DEVD-afc) as previously described.
BioPorter-based peptide delivery was performed 4 hours before apoptosis induction.

[1] = Membrane permeability and cellular retention of peptides; type: in vitro ADME
[2] = target: T1, interaction of Ku70 and Bax (Homo sapiens, UniProt Q07812); assay: Co-immunoprecipitation of endogenous Ku70 and Bax in cell lysates with added peptide; type: binding; conditions: peptide added to cell lysates
T1 construct: endogenous in cells; HeLa and 293 cells for the V6 peptide
Procedure: FIGS. 6A–D: HEK293T cells (10^7 cells) lysed in CHAPS buffer were incubated with 200 uM negative control (NC) peptide or (A) VPMLK (V5, SEQ ID NO: 1), (B) PMLKE (P5, SEQ ID NO: 2), (C) PMLK (P4, SEQ ID NO: 3), and (D) MLKE (M4, SEQ ID NO: 6) at the indicated concentrations for 1 hour. Immunoprecipitation was performed with anti-Ku70 monoclonal antibody or anti-Bax polyclonal antibody using CHAPS buffer as described in Methods. Mouse IgG and pre-immune rabbit serum (NRS) were used as negative controls.
By testing several deletion mutants of the Ku70 protein, I have identified the Bax-binding domain in Ku70. The domain comprises 6 amino acids (VPMLKE, SEQ ID NO: 7). This peptide (Ku70 Peptide V6) inhibits the interaction of Ku70 and Bax at the concentration of 20–80 μM in lysates prepared from human cultured cells (HeLa cells and human kidney epithelial 293 cells).
Endogenous protein: HEK293T (10^7 cells) were lysed in 200 ul of “CHAPS-based buffer” (150 mM NaCl, 10 mM Hepes, pH 7.4, 1.0% CHAPS) containing protease inhibitors (100 times dilution of Protease Inhibitors Cocktail; Sigma) according to the previously reported method (Hsu and Youle, J. Biol. Chem. 273:10777–10783, 1998). […]

endogenous Bax = target: T2, endogenous Bax (Homo sapiens, UniProt Q07812); assay: Co-immunoprecipitation of Flag-tagged Ku70 mutants and endogenous Bax; type: binding; conditions: HEK293T cells
T2 construct: endogenous in cells; host or cells: HEK293T
Procedure: Endogenous protein: HEK293T (10^7 cells) were lysed in 200 ul of “CHAPS-based buffer” (150 mM NaCl, 10 mM Hepes, pH 7.4, 1.0% CHAPS) containing protease inhibitors (100 times dilution of Protease Inhibitors Cocktail; Sigma) according to the previously reported method (Hsu and Youle, J. Biol. Chem. 273:10777–10783, 1998). After precleaning of 600 ul of the sample with 50 ul of Protein G-Sepharose at 4° C. for 1 hour, immunoprecipitations were performed by incubating 200 ul of lysates with 20 ul of Protein G-Sepharose preabsorbed with 2 ug of anti-Bax polyclonal (BD-Pharmingen) or anti-Ku70 monoclonal antibody (BD-Pharmingen) at 4° C. for 2 hours. In some cases, 2 ug of anti-Bax monoclonal antibody (clone 6A7, BD Pharmingen) was used to detect active form of Bax. After extensive washing in the buffer, beads were boiled in 40 ul of Laemmli buffer and 20 ul of the eluted proteins were subjected to SDS-PAGE. Co-precipitation of biotin-labeled peptides and endogenous Bax using streptavidin beads: HEK293T cells (10^7 cells) lysed in 200 ul CHAPS-based buffer were incubated with biotin-labeled negative control (NC) peptide or VPMLK (V5; SEQ ID NO: 1) peptide for 1 hour. The concentrations of NC and V5 peptide labeled with biotin are described in the figure legends. […]

human Bax = target: T3, human Bax (human, UniProt Q07812 1-192); assay: fluorescence microscopy of HeLa cells and of Du145 cells with or without pcDNA3-Bax
T3 construct: Protein in cell lysates or cells, not purified; also called endogenous Bax; pcDNA3-Bax (human)
Procedure: HeLa cells and transfected or untransfected Du145 cells with pcDNA3-Bax were incubated with 200 uM FITC-labeled VPMLK (V5; SEQ ID NO: 1) peptide for 1 hour prior to microscopic analysis by fluorescent microscope. For immunostaining, cells incubated with FITC-V5 peptide for 1 hour were fixed with 4% paraformaldehyde in phosphate buffered saline (PBS). Cells were permeablized with 0.5% Triton X-100 and 0.05% Tween-20 in PBS. Fixed cells were incubated in PBS containing 5% BSA at 37 C, and stained with anti-Bax monoclonal antibody (BD-Pharmingen, dilution 1:50) followed by the detection of Texas-Red labeled anti-mouse IgG (Jackson ImmunoResearch, dilution 1:100).

[3] = target: T4, endogenous Bax in Ku70-deficient mouse embryonic fibroblasts (mouse, UniProt Q07813 1-192); assay: Scatchard analysis; FITC fluorescence before and after immunoprecipitation of Bax from Ku70-deficient MEF cytosol
T4 construct: also called endogenous Bax in Ku70-deficient MEFs
Procedure: The interaction of BIP and Bax was confirmed by experiments using the system of biotin-labeled BIP and streptavidin beads. Biotin-labeled BIP (biotin-VPMLK; SEQ ID NO: 1), but not negative control peptide (biotin-IPMIK; SEQ ID NO: 5) precipitated Bax from the cell lysates when the streptavidin beads were added to the samples.
Ku70-deficient MEFs (10^7 cells) were lysed in 200 ul of "detergent-free hypotonic buffer" (hypotonic (5 mM NaCl) phosphate buffered saline, pH 7.4) containing protease inhibitors (100 times dilution of Protease Inhibitors Cocktail; Sigma) according to the previously reported method (Hsu and Youle, supra, 1998). For Scatchard analysis, the cytosol fraction was used and NaCl was added to prepare the isotonic condition before immunoprecipitation as previously reported (Hsu and Youle, supra, 1998). […] FITC fluorescence of pre-immunoprecipitation ("B"+"F") and the supernatant following immunoprecipitation ("F") were measured by fluorescence microplate reader (Molecular Devices), and the values of "B+F" and "B" were calculated. Kd was calculated by Scatchard plot. […] No significant binding of FITC-V5 to the cellular components was detected in Bax-immunodepleted samples.

T2 sequence (Q07812 whole entry): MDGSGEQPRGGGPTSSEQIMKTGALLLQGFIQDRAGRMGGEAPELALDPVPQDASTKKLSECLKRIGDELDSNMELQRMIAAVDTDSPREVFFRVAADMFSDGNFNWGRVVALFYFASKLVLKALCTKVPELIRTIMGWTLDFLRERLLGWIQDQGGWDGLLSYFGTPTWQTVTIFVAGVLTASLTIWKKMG
T1 sequence (Q07812 whole entry): as above
T3 sequence (Q07812 whole entry): as above
T4 sequence (Q07813 whole entry): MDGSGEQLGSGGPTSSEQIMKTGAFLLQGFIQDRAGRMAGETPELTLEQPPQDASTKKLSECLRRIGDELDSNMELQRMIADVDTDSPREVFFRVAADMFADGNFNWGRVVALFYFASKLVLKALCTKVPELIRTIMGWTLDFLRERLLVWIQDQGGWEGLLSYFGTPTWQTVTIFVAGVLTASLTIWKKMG

- Membrane permeability [1]: membrane permeable
- Retention of the peptide in the cell [1]: effectively retained inside the cells
Molecule: CSCC[C@H](NC(=O)[C@@H]1CCCN1)C(=O)N[C@@H](CC(C)C)C(=O)N[C@@H](CCCCN)C(=O)N[C@@H](CCC(=O)O)C(=O)O [PMLKE] (H-PMLKE-OH; N-terminus and C-terminus assumed)

- Retention of the peptide in the cell [1]: not retained in the cell
Molecule: CSCC[C@H](NC(=O)[C@@H]1CCCN1)C(=O)N[C@@H](CC(C)C)C(=O)N[C@@H](CCCCN)C(=O)O [PMLK] (H-PMLK-OH; N-terminus and C-terminus assumed)

- Membrane permeability [1]: not membrane permeable
Molecule: CSCC[C@H](NC(=O)[C@@H]1CCCN1C(=O)[C@@H](N)C(C)C)C(=O)N[C@@H](CC(C)C)C(=O)N[C@@H](CCCCN)C(=O)N[C@@H](CCC(=O)O)C(=O)O [VPMLKE] (H-VPMLKE-OH; N-terminus and C-terminus assumed)

- Membrane permeability [1]: membrane permeable
- Retention of the peptide in the cell [1]: effectively retained inside the cells
Molecule: CSCC[C@H](NC(=O)[C@@H]1CCCN1C(=O)[C@@H](N)C(C)C)C(=O)N[C@@H](CC(C)C)C(=O)N[C@@H](CCCCN)C(=O)O [VPMLK] (H-VPMLK-OH; N-terminus and C-terminus assumed)

- Binding of Flag-tagged Ku70 mutant to endogenous Bax (endogenous Bax): binds endogenous Bax
Molecule: Ku70578-609: Flag-tagged Ku70 mutant expressing the amino acids 578–609 of Ku70 (VPMLKEACRAYGLKSGLKKQELLEALTKHFQD; also: Flag-tagged)
- Suppression of Bax-induced apoptosis by co-transfected Ku70 mutant (HEK293T cells): suppressed Bax-induced apoptosis

- binding result (human Bax): binds
- Kd [3]: 1300 nM
Molecule: VPMLK (also: FITC-labeled, position of label not given here, also called FITC-BIP; FITC-V5) [FITC-labeled BIP (VPMLK; SEQ ID NO: 1)]

Continued, molecule first:

Molecule: 578–587: synthetic peptide of Ku70 amino acids 578–587, 2nd α-helix from the C-terminus (VPMLKEACRA; UniProt P12956 578-587, looked up, fragment)
- Suppression of Bax-induced apoptosis (HEK293T cells): inhibited Bax-induced apoptosis

Molecule: 596–600: synthetic peptide of Ku70 amino acids 596–600 (KQELL; UniProt P12956 596-600, looked up, fragment)
- Suppression of Bax-induced apoptosis (HEK293T cells): not

Molecule: Ku70 Peptide NC: immediate next six amino acid sequence of Ku70, negative control (LGKFTV) [reference compound]
- Effect on the interaction of Ku70 and Bax [2]: did not affect the interaction of Ku70 and Bax

Molecule: Ku701-577: Ku70 mutant deleted of amino acids 578–609
- Suppression of Bax-induced apoptosis by co-transfected Ku70 mutant (HEK293T cells): not
- Binding of Flag-tagged Ku70 mutant to endogenous Bax (endogenous Bax): did not

Molecule: MLKE [four amino acid deletion peptide]
- Effect on the interaction of Ku70 and Bax [2]: did not interfere with Bax-Ku70 interaction
